SMILES strings stand for the structures. Counter-ions that a name gives are not always drawn.

With `CCOC(=O)C(C)(C)c1ccc(CN2CCC(CCC(=O)c3ccc4c(c3)CCN(Cc3ccc(F)cc3)CC4)CC2)cc1` (as salt: hydrochloride) [Example 43, Ethyl 2-methyl-2-[4-[[4-[3-[3-[(4-fluorophenyl)methyl]-2,3,4,5-tetrahydro-1H-3-benzazepin-7-yl]-3-oxopropyl]-1-piperidinyl]methyl]phenyl]propionate Dihydrochloride], the melting point (usually the temperature of the solid-liquid transition) is 228 to 231 °C (dec.).

Consider `CCOC(=O)C(C)(C)c1cccc(CN2CCC(CCCC(=O)c3ccc4c(c3)CCN(Cc3ccccc3)CC4)CC2)c1` (as salt: hydrochloride) [Example 153, Ethyl 2-methyl-2-[3-[[4-[4-[3-(phenylmethyl)-2,3,4,5-tetrahydro-1H-3-benzazepin-7-yl]-4-oxobutyl]-1-piperidinyl]methyl]phenyl]propionate Dihydrochloride], for which the melting point is 146 to 148 °C. Consider `Cc1ccccc1CN1CCc2ccc(C(=O)CCCC3CCN(Cc4ccccc4Cl)CC3)cc2CC1` (as salt: hydrochloride), for which the melting point was in the range of 165 to 168 °C. `CCN(CC)CCN1CCc2ccc(C(=O)CCCC3CCN(Cc4ccccc4C)CC3)cc2CC1` (as salt: hydrochloride) [Example 244, 1-[3-(2-Diethyaminoethyl)-2,3,4,5-tetrahydro-1H-3-benzazepin-7-yl]-4-[1-[(2-methylphenyl)methyl]-4-piperidinyl]-1-butanone Trihydrochloride]: the melting point was 211 to 213 °C.

Consider `Cc1ccccc1CN1CCc2ccc(C(=O)CCCC3CCN(Cc4cccc(C(=N)N)c4)CC3)cc2CC1` [Example 260], for which the melting point lay within 150 to 152 °C. In turn, `O=C(CCC1CCNCC1)c1ccc2c(c1)CN(Cc1ccc(F)cc1)CCC2` (as salt: hydrochloride) gave a melting point of 245 to 247 °C. Molecule `O=C(CCC1CCN(Cc2ccccc2C(F)(F)F)CC1)c1ccc2c(c1)CN(Cc1ccc(F)cc1)CCO2` (as salt: hydrochloride) yielded a melting point of 203 to 204 °C.

`N#Cc1ccccc1CN1CCc2ccc(C(=O)CCCC3CCN(Cc4ccccc4Cl)CC3)cc2CC1` [Example 265, 4-[1-[(2-Chlorophenyl)methyl]-4-piperidinyl]-1-[3-[(2-cyanophenyl)methyl]-2,3 4,5-tetrahydro-1H-3-benzazepin-7-yl]-1-butanone] displayed a melting point of 103 to 104 °C. `Cc1ccc(CN2CCC(CCCC(=O)c3ccc4c(c3)CCN(Cc3ccc([N+](=O)[O-])cc3)CC4)CC2)cc1.Cl.Cl` gave a melting point of 208 to 211 °C.

`CC(C)(C)c1ccc(CN2CCC(CCC(=O)c3ccc4c(c3)CN(Cc3ccc(F)cc3)CCO4)CC2)cc1` (as salt: hydrochloride) [Example 108, 1-[4-[(4-Fluorophenyl)methyl]-2,3,4,5-tetrahydro-4-benzoxazepin-7-yl]-3-[1-[[4-(tert-butyl)phenyl]methyl]-4-piperidinyl]-1-propanone Dihydrochloride] had a melting point of 240 to 243 °C. For `Cc1ccccc1CN1CCC(CCC(=O)c2ccc3c(c2)CN(Cc2ccc(F)cc2)CCO3)CC1` (as salt: hydrochloride) [Example 83, 1-[4-[(4-Fluorophenyl)methyl]-2,3,4,5-tetrahydro-1,4-benzoxazepin-7-yl]-3-[1-[(2-methylphenyl)methy]-4-piperidinyl]-1-propanone Dihydrochloride], the melting point fell in the range of 216 to 219 °C. In the case of `Cc1ccccc1CN1CCc2ccc(C(=O)CCCC3CCNCC3)cc2CC1` (as salt: hydrochloride) [Example 255, 1-[3-(2-Methylphenyl)methyl]-2,3,4,5-tetrahydro-1H-3-benzazepin-7-yl]-4-(4-piperidinyl)-1-butanone Dihydrochloride], the melting point is 192 to 203 °C (dec.). For `Cc1cccc(CN2CCC(CCCC(=O)c3ccc4c(c3)CCN(Cc3ccccc3)CC4)CC2)c1.Cl.Cl` the value was 222 to 225 °C (dec.); for `O=C(CCC1CCN(Cc2ccc(C(F)(F)F)cc2)CC1)c1ccc2c(c1)CN(Cc1ccccc1)CCO2` (as salt: hydrochloride), 239 to 241 °C.

With `CC(=O)N1CCc2ccc(C(=O)CCCC3CCN(Cc4ccccc4C)CC3)cc2CC1.Cl`, the melting point was 93 to 94 °C. In the case of `CCOC(=O)C1(C(=O)OCC)Oc2ccc(CN3CCC(CCC(=O)c4ccc5c(c4)CN(Cc4ccc(F)cc4)CCO5)CC3)cc2O1` (as salt: hydrochloride), the melting point is 199 °C (dec.). For `Cl.Cl.O=C(CCCC1CCN(Cc2ccc(F)cc2)CC1)c1ccc2c(c1)CCN(Cc1ccccc1)CC2` the value was 226 to 229 °C (dec.); for `CCOC(=O)COc1ccc(CN2CCC(CCC(=O)c3ccc4c(c3)CCN(Cc3ccc(F)cc3)CC4)CC2)cc1` (as salt: hydrochloride) [Example 45, Ethyl 2-[4-[[4-[3-[3-[(4-fluorophenyl)methyl]-2,3,4,5-tetrahydro-1H-3-benzazepin-7-yl]-3-oxopropyl]-1-piperidinyl]methyl]phenoxy]ethanoate Dihydrochloride], 206 to 208 °C; for `Cc1ccccc1CN1CCc2ccc(C(=O)CCCC3CCN(Cc4ccccc4C(N)=O)CC3)cc2CC1` (as salt: hydrochloride) [Example 254, 2-[[4-[4-[3-[(2-Methylphenyl)methyl]-2,3,4,5-tetrahydro-1H-3-benzazepin-7-yl]-4-oxobutyl]-1-piperidinyl]methyl]benzamide Dihydrochloride], 201 to 220 °C (dec.). In turn, `COC(=O)c1ccccc1CN1CCc2ccc(C(=O)CCCC3CCN(Cc4ccccc4C)CC3)cc2CC1` (as salt: hydrochloride) registered a melting point of 111 to 113 °C. Under `O=C(CCCC1CCN(Cc2cccc([N+](=O)[O-])c2)CC1)c1ccc2c(c1)CCN(Cc1ccccc1)CC2` (as salt: hydrochloride) [Example 154, 4-[1-[(3-Nitrophenyl)methyl]-4-piperidinyl-1-(3-(phenylmethyl)-2,3,4,5-tetrahydro-1H-3-benzazepin-7-yl]-1-butanone Dihydrochloride] stands 239 to 244 °C (dec.); under `Cl.Cl.O=C(CC1CCN(Cc2ccc(F)cc2)CC1)c1ccc2c(c1)CCN(Cc1ccccc1)CC2`, 243 to 247 °C (dec.); under `Cc1ccccc1CN1CCc2ccc(C(=O)CCCC3CCN(Cc4cccc(Cl)c4)CC3)cc2CC1` (as salt: hydrochloride) [Example 130], 180 to 183 °C. As for `Cc1ccc(CN2CCC(CCCC(=O)c3ccc4c(c3)CCN(Cc3ccccc3)CC4)CC2)cc1.Cl.Cl`, the melting point is 207 to 210 °C (dec.).

The molecule `COc1ccc(CN2CCc3cc(C(=O)CCC4CCN(Cc5ccccc5)CC4)ccc32)cc1.O=C(O)/C=C/C(=O)O` displayed a melting point of 95 to 98 °C.

`Cc1cccc(CN2CCc3ccc(C(=O)CCCC4CCN(Cc5ccc(F)cc5)CC4)cc3CC2)c1` (as salt: hydrochloride) yielded a melting point of 209 to 212 °C. On to `CN1CCC(CCC(=O)c2ccc3c(c2)CCN(Cc2ccc(F)cc2)CC3)CC1` (as salt: hydrochloride) [Example 42, 1-[3-[(4-Fluorophenyl)methyl]-2,3,4,5-tetrahydro-1H-3-benzazepin-7-yl]-3-(1-methyl-4-piperidinyl)-1-propanone Dihydrochloride], for which the melting point is 213 to 216 °C (dec.). `CC(=O)N1CCC(CCC(=O)c2ccc3c(c2)CCN3c2ccncc2)CC1` [Example 61, 3-(1-Acetyl-4-piperidinyl)-1-[1-(4-pyridyl)-2,3-dihydroindol-5-yl]-1-propanone] yielded a melting point of 157 to 158 °C. For `COc1ccc(CN2CCc3ccc(C(=O)CCC4CCN(C(=O)c5ccc(-c6ccccc6)cc5)CC4)cc3CC2)cc1.Cl` the value was 212 to 215 °C; for `O=C(CCC1CCN(Cc2ccc(F)cc2)CC1)c1ccc2c(c1)CN(Cc1ccccc1)CCO2` (as salt: hydrochloride) [Example 8, 3-[1-[(4-Fluorophenyl)methyl]-4-piperidinyl]-1-[4-(phenylmethyl)-2,3,4 5-tetrahydro-1,4-benzoxazepin-7-yl]-1-propanone Dihydrochloride], 212 to 214 °C; for `O=C(CCC1CCN(Cc2cccc(C(F)(F)F)c2)CC1)c1ccc2c(c1)CN(Cc1ccc(F)cc1)CCC2` (as salt: hydrochloride), 197 to 199 °C. For `O=C(CCC1CCN(Cc2ccncc2)CC1)c1ccc2c(c1)CN(Cc1ccccc1)CCO2` (as salt: hydrochloride) the value was 243 to 245 °C; for `Cc1ccc(CN2CCC(CCC(=O)c3ccc4c(c3)CN(Cc3ccc(F)cc3)CCO4)CC2)cc1` (as salt: hydrochloride), 240 to 242 °C. In the case of `CNC(=O)Nc1ccccc1CN1CCC(CCCC(=O)c2ccc3c(c2)CCN(Cc2ccccc2C)CC3)CC1` (as salt: hydrochloride), the melting point was 176 to 189 °C (dec.).

Consider `Cc1cccc(CN2CCC(CCC(=O)c3ccc4c(c3)CN(Cc3ccccc3)CCO4)CC2)c1` (as salt: hydrochloride) [Example 4, 3-[1-[(3-Methylphenyl)methyl]-4-piperidinyl]-1-[4-(phenylmethyl)-2,3,4,5-tetrahydro-1,4-benzoxazepin-7-yl]-1-propanone Dihydrochloride], for which the melting point was 212 to 214 °C. `O=C(CCC1CCN(Cc2cc([N+](=O)[O-])cc([N+](=O)[O-])c2)CC1)c1ccc2c(c1)CN(Cc1ccccc1)CCO2` (as salt: hydrochloride): the melting point was 232 °C (dec.). `Cc1ccc(CN2CCC(CCCC(=O)c3ccc4c(c3)CCN(Cc3cccc([N+](=O)[O-])c3)CC4)CC2)cc1` (as salt: hydrochloride) came in with a melting point of 172 to 174 °C.

In the case of `O=C(CCCC1CCN(Cc2cccc(F)c2)CC1)c1ccc2c(c1)CCN(Cc1ccccc1)CC2` (as salt: hydrochloride), the melting point is 245 to 248 °C (dec.). For `Cc1ccccc1CN1CCc2ccc(C(=O)CCCC3CCN(Cc4ccccc4NS(C)(=O)=O)CC3)cc2CC1` (as salt: hydrochloride) the value was 185 to 195 °C (dec.).

(Values after patent publication US6534496B1, “Thermogenic composition and benzazepine thermogenics” (Takeda Chemical Industries, Inc., priority 1997, dated 2003).)
